Results reported in PubChem BioAssay AID977614 (Broad Institute, 2014).
Calls of active or inactive are those of the source.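 The calls were made as follows: active = parasite count per well reduced by over 3 SD from the mean, with host cell number above 80% of untreated; inactive = the rest.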

These compounds were tested on L. donovani amastigotes in THP-1 macrophages, DAPI imaging, 72 h (assay: L. donovani intracellular amastigote growth inhibitors, imaging, THP-1 host macrophages, single concentration (AID 977614);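 also: signal is the parasite per host cell ratio from DAPI stained kinetoplasts and nuclei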).
`O=C(NC[C@H]1N[C@H](CO)[C@H]1c1ccc(-c2ccccc2F)cc1)c1ccccn1` was tested, and the AC50 was > 10 µM (inactive).
In the case of `O=C(CN1CCOCC1)NC[C@@H]1N[C@@H](CO)[C@@H]1c1ccc(-c2ccccc2)cc1`, the AC50 is reported as > 10 µM (inactive).
`COc1ccc(CN2[C@H](CO)[C@H]3c4ccccc4NC[C@H]32)cc1` was tested, and the AC50 was > 10 µM (inactive).
`C[C@H](CO)N1C[C@H](C)[C@@H](CN(C)C(=O)c2cc(-c3ccccc3)on2)OCc2cnnn2CCCC1=O` was tested, and the AC50 was > 10 µM (inactive).
`COc1ccc(NC(=O)N(C)C[C@@H]2OCc3cnnn3CCCC(=O)N([C@H](C)CO)C[C@@H]2C)c(OC)c1` was tested, and the AC50 was > 10 µM (inactive).
`O=C(Nc1ccccc1Cl)N1C[C@@H]2[C@H](c3ccccc31)[C@@H](CO)N2Cc1ccncc1` was tested, and the AC50 was > 10 µM (inactive).
For `O=C(C1CCC1)N1C[C@H]2[C@@H](c3ccccc31)[C@@H](CO)N2Cc1ccccc1`, the AC50 was > 10 µM (inactive).
With `C[C@H](CO)N1C[C@H](C)[C@H](CN(C)Cc2ccc(C(=O)Nc3ccccc3N)cc2)OCc2cnnn2CCCC1=O` the AC50 was > 10 µM (inactive).
With `COCC(=O)NC[C@@H]1[C@@H](c2ccccc2)[C@@H](CO)N1C(=O)c1ccccc1` the AC50 was > 10 µM (inactive).
`C[C@H](CO)N1C[C@H](C)[C@H](CN(C)C(=O)NC2CCCC2)OCc2cnnn2CCCC1=O` was tested, and the AC50 was > 10 µM (inactive).
For `C[C@H](CO)N1C[C@H](C)[C@@H](CN(C)S(=O)(=O)c2cccc(C#N)c2)OCc2cn(nn2)CCCC1=O`, the AC50 was > 10 µM (inactive).
For `OC[C@@H]1[C@H]2c3ccccc3NC[C@H]2N1CC1CCOCC1`, the AC50 was > 10 µM (inactive).
In the case of `CC(C)NC(=O)N1[C@@H](CO)[C@H](c2ccccc2)[C@@H]1CN(C)C(=O)c1cccnc1`, the AC50 is reported as > 10 µM (inactive).
With `C[C@H](CO)N1C[C@H](C)[C@@H](CN(C)C(=O)Nc2cccc3ccccc23)OCc2cn(nn2)CCCC1=O` the AC50 was > 10 µM (inactive).
In the case of `C[C@@H]1CN([C@H](C)CO)C(=O)CCCn2nncc2CO[C@@H]1CN(C)Cc1ccc(C(=O)Nc2ccccc2N)cc1`, the AC50 is reported as > 10 µM (inactive).
With `COCCN(C[C@H]1[C@H](c2ccccc2)[C@H](CO)N1C(C)=O)C(=O)c1cccnc1` the AC50 was > 10 µM (inactive).
With `COc1ccc(CN(C)C[C@@H]2OCc3cnnn3CCCC(=O)N([C@@H](C)CO)C[C@@H]2C)cc1` the AC50 was > 10 µM (inactive).
For `CCC(=O)NC[C@@H]1[C@@H](c2ccc(-c3ccc(F)cc3)cc2)[C@@H](CO)N1C(=O)CC`, the AC50 was > 10 µM (inactive).
For `COCC(=O)N1[C@@H](CO)[C@@H]2c3ccccc3N(C(=O)c3cccnc3)C[C@@H]21`, the AC50 was > 10 µM (inactive).
With `O=C(Nc1ccc(F)cc1)N1C[C@H]2[C@@H](c3ccccc31)[C@@H](CO)N2Cc1ccccc1Cl` the AC50 was > 10 µM (inactive).
In the case of `C[C@H]1CN([C@@H](C)CO)C(=O)CCCn2cc(nn2)CO[C@H]1CN(C)C(=O)CCC(F)(F)F`, the AC50 is reported as > 10 µM (inactive).
For `O=C(CC(F)(F)F)N1C[C@@H]2[C@H](c3ccccc31)[C@@H](CO)N2C(=O)C1CCCCC1`, the AC50 was > 10 µM (inactive).
`CCC(=O)N1C[C@H]2[C@@H](c3ccccc31)[C@H](CO)N2C(=O)CC1CC1` was tested, and the AC50 was > 10 µM (inactive).
For `CC(=O)NC[C@H]1[C@H](c2ccc(C3=CCCC3)cc2)[C@@H](CO)N1Cc1cccnc1`, the AC50 was > 10 µM (inactive).
`O=S(=O)(NC[C@H]1[C@@H](c2ccccc2)[C@H](CO)N1CC1CC1)c1ccccc1` was tested, and the AC50 was > 10 µM (inactive).
`C[C@@H]1CN([C@H](C)CO)C(=O)CCCn2nncc2CO[C@@H]1CN(C)C(=O)Nc1ccc(-c2cccs2)cc1` was tested, and the AC50 was > 10 µM (inactive).
With `O=C(Nc1ccc(F)cc1)N1[C@H](CO)[C@H]2c3ccccc3NC[C@H]21` the AC50 was > 10 µM (inactive).
In the case of `C[C@@H]1CN([C@@H](C)CO)C(=O)CCCn2nncc2CO[C@H]1CN(C)Cc1cccc2c1OCCCO2`, the AC50 is reported as > 10 µM (inactive).
For `CCC(=O)N1[C@H](CO)[C@H](c2ccc(-c3cccc(OC)c3)cc2)[C@@H]1CNC(C)=O`, the AC50 was > 10 µM (inactive).
With `COc1ccccc1C(=O)N1C[C@@H]2[C@H](c3ccccc31)[C@@H](CO)N2C(=O)Cc1ccccc1` the AC50 was > 10 µM (inactive).
In the case of `O=C(Nc1cccc(Cl)c1)N1C[C@@H]2[C@H](c3ccccc31)[C@@H](CO)N2Cc1cccnc1`, the AC50 is reported as > 10 µM (inactive).
For `C[C@H]1CN([C@@H](C)CO)C(=O)CCCn2nncc2CO[C@@H]1CN(C)C(=O)Nc1ccc(-c2cccs2)cc1`, the AC50 was > 10 µM (inactive).
For `CN(Cc1ccccc1F)C[C@H]1[C@@H](c2ccccc2)[C@@H](CO)N1S(C)(=O)=O`, the AC50 was > 10 µM (inactive).
For `COc1cccc(C(=O)N2C[C@H]3[C@@H](c4ccccc42)[C@H](CO)N3C(=O)c2cccc(F)c2)c1`, the AC50 was > 10 µM (inactive).
`O=C(C1CCCCC1)N1[C@H](CO)[C@@H]2c3ccccc3N(S(=O)(=O)c3ccccc3)C[C@@H]21` was tested, and the AC50 was > 10 µM (inactive).
In the case of `O=C(CC(F)(F)F)N1C[C@@H]2[C@H](c3ccccc31)[C@H](CO)N2Cc1cccnc1`, the AC50 is reported as > 10 µM (inactive).
In the case of `CCN(C[C@H]1[C@H](c2ccc(C3=CCCCC3)cc2)[C@H](CO)N1CC1CC1)C(C)=O`, the AC50 is reported as > 10 µM (inactive).
With `CC(=O)N1C[C@H]2[C@@H](c3ccccc31)[C@@H](CO)N2Cc1ccc(Cl)cc1` the AC50 was > 10 µM (inactive).
`CCCNC(=O)N1[C@@H](CO)[C@@H]2c3ccccc3N(C(=O)Nc3cccc(Cl)c3)C[C@@H]21` was tested, and the AC50 was > 10 µM (inactive).
For `CN(C[C@@H]1[C@@H](c2ccccc2)[C@@H](CO)N1Cc1ccccn1)S(C)(=O)=O`, the AC50 was > 10 µM (inactive).
In the case of `O=C(c1ccccn1)N1C[C@@H]2[C@H](c3ccccc31)[C@H](CO)N2C(=O)C1CCCCC1`, the AC50 is reported as > 10 µM (inactive).
`C[C@@H]1CN([C@@H](C)CO)C(=O)CCCn2nncc2CO[C@@H]1CN(C)Cc1cccc2c1OCCCO2` was tested, and the AC50 was > 10 µM (inactive).
In the case of `CN(C[C@@H]1[C@@H](c2ccccc2)[C@H](CO)N1Cc1ccccn1)S(C)(=O)=O`, the AC50 is reported as > 10 µM (inactive).
In the case of `CCC(=O)N1[C@@H](CO)[C@@H]2c3ccccc3N(C(=O)c3cnccn3)C[C@@H]21`, the AC50 is reported as > 10 µM (inactive).
In the case of `C[C@H]1CN([C@@H](C)CO)C(=O)CCCn2cc(nn2)CO[C@@H]1CN(C)C(=O)Oc1ccc2ccccc2c1`, the AC50 is reported as > 10 µM (inactive).
`C[C@@H]1CN([C@@H](C)CO)C(=O)CCCn2nncc2CO[C@H]1CN(C)C(=O)c1cc(-c2ccccc2)on1` was tested, and the AC50 was > 10 µM (inactive).
`O=C(Cc1cccnc1)N1[C@H](CO)[C@H](c2ccccc2)[C@@H]1CNCC1CCC1` was tested, and the AC50 was > 10 µM (inactive).
With `CCC(=O)N1C[C@@H]2[C@H](c3ccccc31)[C@H](CO)N2C(=O)CC1CC1` the AC50 was > 10 µM (inactive).
For `C/C=C/c1ccc([C@@H]2[C@@H](CO)N[C@@H]2CN(CC(C)C)C(=O)c2ccccn2)cc1`, the AC50 was > 10 µM (inactive).
`CCC(=O)N1[C@H](CO)[C@H](c2ccc(C3=CCCC3)cc2)[C@@H]1CNC1CCCCC1` was tested, and the AC50 was > 10 µM (inactive).
With `CCCC(=O)N1C[C@@H]2[C@H](c3ccccc31)[C@H](CO)N2C(=O)Nc1ccc(F)cc1` the AC50 was > 10 µM (inactive).
For `COc1ccccc1CN1[C@H](CO)[C@H]2c3ccccc3N(C(=O)C3CCOCC3)C[C@H]21`, the AC50 was > 10 µM (inactive).
For `COCCN(C[C@H]1N[C@H](CO)[C@@H]1c1ccc(-c2cccc(C#N)c2)cc1)C(C)=O`, the AC50 was > 10 µM (inactive).
In the case of `CN1C[C@H]2[C@@H](c3ccccc31)[C@H](CO)N2Cc1ccccc1Cl`, the AC50 is reported as > 10 µM (inactive).
`O=C(c1ccccn1)N1C[C@@H]2[C@H](c3ccccc31)[C@@H](CO)N2C(=O)C1CCCCC1` was tested, and the AC50 was > 10 µM (inactive).
In the case of `COc1ccc(CN(C)C[C@@H]2OCc3cnnn3CCCC(=O)N([C@@H](C)CO)C[C@H]2C)cc1`, the AC50 is reported as > 10 µM (inactive).
For `O=C(CC(F)(F)F)N1C[C@H]2[C@@H](c3ccccc31)[C@H](CO)N2CC1CCOCC1`, the AC50 was > 10 µM (inactive).
With `CCCC(=O)N1C[C@@H]2[C@H](c3ccccc31)[C@@H](CO)N2C(=O)Nc1ccc(F)cc1` the AC50 was > 10 µM (inactive).
For `C[C@H](CO)N1C[C@H](C)[C@H](CN(C)Cc2ccc3c(c2)OCCN3C)OCc2cnnn2CCCC1=O`, the AC50 was > 10 µM (inactive).
With `O=C(C1CCOCC1)N1C[C@@H]2[C@H](c3ccccc31)[C@H](CO)N2C(=O)Cc1ccccn1` the AC50 was > 10 µM (inactive).
`CNC[C@@H]1OCc2cn(nn2)CCCC(=O)N([C@H](C)CO)C[C@H]1C` was tested, and the AC50 was > 10 µM (inactive).
With `CCC(=O)N1[C@@H](CO)[C@@H]2c3ccccc3N(C(=O)Nc3ccc(Cl)cc3)C[C@@H]21` the AC50 was > 10 µM (inactive).
With `C[C@H]1CN([C@@H](C)CO)C(=O)CCCn2nncc2CO[C@@H]1CN(C)C(=O)CCC(F)(F)F` the AC50 was > 10 µM (inactive).
With `CN1C[C@H]2[C@@H](c3ccccc31)[C@@H](CO)N2S(=O)(=O)c1ccccc1` the AC50 was > 10 µM (inactive).
In the case of `OC[C@@H]1[C@@H]2c3ccccc3NC[C@@H]2N1CC1CCOCC1`, the AC50 is reported as > 10 µM (inactive).
With `CCC(=O)N1[C@H](CO)[C@H]2c3ccccc3N(C(=O)c3cnccn3)C[C@H]21` the AC50 was > 10 µM (inactive).
For `COCC(=O)N1C[C@@H]2[C@H](c3ccccc31)[C@H](CO)N2C(=O)c1ccccc1F`, the AC50 was > 10 µM (inactive).
In the case of `C[C@@H]1CN([C@H](C)CO)C(=O)CCCn2nncc2CO[C@@H]1CN(C)C(=O)Nc1cccc(Oc2ccccn2)c1`, the AC50 is reported as > 10 µM (inactive).
For `C[C@@H]1CN([C@H](C)CO)C(=O)CCCn2nncc2CO[C@@H]1CN(C)C(=O)c1cc(-c2ccccc2)on1`, the AC50 was > 10 µM (inactive).
`C/C=C/c1ccc([C@@H]2[C@H](CO)N[C@H]2CNS(=O)(=O)c2ccccc2)cc1` was tested, and the AC50 was > 10 µM (inactive).
`C[C@H](CO)N1C[C@H](C)[C@@H](CN(C)C(=O)c2ccc(N3CCN(C)CC3)cc2)OCc2cnnn2CCCC1=O` was tested, and the AC50 was > 10 µM (inactive).
In the case of `C[C@H](CO)N1C[C@H](C)[C@@H](CN(C)Cc2ccc3cccnc3c2)OCc2cnnn2CCCC1=O`, the AC50 is reported as > 10 µM (inactive).
With `COc1ccc(C(=O)N2C[C@H]3[C@@H](c4ccccc42)[C@@H](CO)N3Cc2ccccc2Cl)cc1` the AC50 was > 10 µM (inactive).
`CCC(=O)N1[C@H](CO)[C@H](c2ccc(C#CC3(O)CCCC3)cc2)[C@@H]1CNC(C)=O` was tested, and the AC50 was > 10 µM (inactive).
`O=C(NC[C@H]1N[C@@H](CO)[C@H]1c1ccc(-c2ccccc2F)cc1)c1ccccn1` was tested, and the AC50 was > 10 µM (inactive).
`CN(C[C@H]1[C@@H](c2ccccc2)[C@@H](CO)N1C(=O)C1CCC1)C(=O)c1ccncc1` was tested, and the AC50 was > 10 µM (inactive).
